PMC12668310, “High‐Throughput Synthesis and Screening of a Cyanimide Library Identifies Selective Inhibitors of ISG15‐Specific Protease mUSP18” (Angewandte Chemie (International Ed. in English), 2025)

What follows are compounds tested against T1, mUSP18 (Mus musculus, UniProt Q9WTV6) (assay: High-throughput screening, ISG15ct-RhoMP, single dose 1.25 µM). Conditions: mUSP18 %inhibition; carboxylic acid (CA) building block alone; read-out: %inh CA only.
T1 construct: (46-368); His-tag (N); made in house
T1 sequence (Q9WTV6 46-368): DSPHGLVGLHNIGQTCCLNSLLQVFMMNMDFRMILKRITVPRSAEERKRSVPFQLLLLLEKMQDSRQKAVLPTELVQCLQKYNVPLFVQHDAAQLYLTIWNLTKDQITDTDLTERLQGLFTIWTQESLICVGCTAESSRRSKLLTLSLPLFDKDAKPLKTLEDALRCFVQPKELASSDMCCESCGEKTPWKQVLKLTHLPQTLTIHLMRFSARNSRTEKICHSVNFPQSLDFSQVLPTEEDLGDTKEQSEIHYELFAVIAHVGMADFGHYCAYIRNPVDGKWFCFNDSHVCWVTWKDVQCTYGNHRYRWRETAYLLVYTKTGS
Format: biochemical, murine

| Compound | inhibition at 1.25 µM |
| --- | --- |
| O=C(O)c1cccc(-c2cnco2)c1 [CA208] | 3.78% |
| O=C1CCC(=O)N(c2ccc(C(=O)O)cc2)N1 [CA209] | -2.74% |
| O=C(O)c1coc(-c2cccnc2)n1 [CA210] | 21% |
| O=C(O)c1ccc(=O)n(Cc2ccccc2)n1 [CA211] | 14.5% |
| Cc1nc(-c2cccnc2)sc1C(=O)O [CA212] | 10.5% |
| CN1CCN(C(=O)c2ccccc2C(=O)O)CC1 [CA213] | 9.22% |
| Cc1cc(C(=O)O)c(C)n1-c1ccon1 [CA214] | 6.76% |
| O=C(O)c1cccc(-c2ncn[nH]2)c1 [CA215] | 8.13% |
| O=C(O)c1ccnn1C1CCOCC1 [CA216] | 6.01% |
| COc1ccc(C(=O)O)cc1S(=O)(=O)N1CCCCCC1 [CA217] | 6.36% |
| Cn1nc(C(=O)N2CCOCC2)cc1C(=O)O [CA218] | 7.94% |
| Cc1nn(C2CCOCC2)c(C)c1C(=O)O [CA219] | 7.18% |
| O=C(O)C1CCOC2(CCC2)C1 (centres unmarked) [CA220] | 7.46% |
| O=C(O)c1cnn(CCN2CCCC2)c1 [CA221] | 5.71% |
| O=C(O)C1(c2cccs2)CC1 [CA222] | 3.38% |
| O=C(O)c1cc(-c2ccco2)on1 [CA223] | 2.35% |
| O=C(O)c1ccc(Cn2cc(Br)cn2)o1 [CA224] | 3.05% |
| O=C(O)C(c1ccccc1)n1cnnn1 (centres unmarked) [CA225] | -0.48% |
| Cc1csc(N2CCCC(C(=O)O)C2)n1 (centres unmarked) [CA226] | 2.29% |
| CC(C(=O)O)n1nc(C(F)(F)F)cc1C1CC1 (centres unmarked) [CA227] | 2.61% |
| O=C(O)C1CCCN1C(=O)Cc1ccccc1 (centres unmarked) [CA228] | 2.77% |

| Compound | inhibition at 1.25 µM |
| --- | --- |
| O=C(O)CC1(n2cccc2)CCCCC1 [CA229] | 3.52% |
| O=C(O)c1cc(S(=O)(=O)NCCCN2CCCC2=O)ccc1Cl [CA230] | 4.86% |
| O=C(O)c1ccc(OCn2cc(Cl)cn2)cc1 [CA231] | 5.6% |
| O=C(O)Cc1cnn(-c2ccccc2)c1 [CA232] | 1.32% |
| CC(C)c1nc(Cn2cc(C(=O)O)ccc2=O)cs1 [CA233] | 1.25% |
| CCS(=O)(=O)N1CCC(C(=O)O)(c2ccccc2)CC1 [CA234] | 19.5% |
| O=C(O)c1ccc(CNS(=O)(=O)c2ccc(F)c(F)c2F)cc1 [CA235] | 13.6% |
| O=C(O)c1csc(C2CC2)n1 [CA236] | 9.58% |
| CC1CCCC(N2CC(C(=O)O)CC2=O)C1C (centres unmarked) [CA237] | 7.37% |
| O=C(O)c1csc(-c2cnc[nH]2)n1 [CA238] | 6.66% |
| Cc1cc(C(=O)O)c(C)n1C1CC1 [CA239] | 7.06% |
| O=C(O)c1cnn(-c2cccc(Br)c2)c1 [CA240] | 7.83% |
| CN(CC(=O)N1CCCC(C(=O)O)C1)c1ccc(Cl)cn1 (centres unmarked) [CA241] | 5.13% |
| O=C(O)C1CCN(C(=O)c2ccccn2)CC1 [CA242] | 6.36% |
| O=C(O)c1ccc(Cn2cncn2)cc1 [CA243] | 6.44% |
| O=C(O)c1cc(Cl)nc(N2CCCC2)c1 [CA244] | 9.03% |
| Cc1nc(-c2c[nH]c(C(=O)O)c2)cs1 [CA245] | 19.9% |
| O=C(O)Cc1ccn(-c2ccccc2)n1 [CA246] | 4.69% |
| O=C(O)C1CC(=O)N(C2CCCCCC2)C1 (centres unmarked) [CA247] | 2.25% |
| O=C(O)c1cc(C2CCCCC2)[nH]n1 [CA248] | 1.65% |
| Cc1ccc(-c2cc(C(=O)O)n[nH]2)s1 [CA249] | 4.85% |

| Compound | inhibition at 1.25 µM |
| --- | --- |
| O=C(O)c1ccc(-c2ccccc2)o1 [CA250] | 3.02% |
| O=C(O)c1cccnc1N1CCCCC1 [CA251] | -0.46% |
| O=C(O)C1=NNC(=O)C1c1ccccc1 (centres unmarked) [CA252] | 3.55% |
| Cc1nn(-c2ccc(C(F)(F)F)cn2)c(C)c1CC(=O)O [CA253] | 3.16% |
| Cc1ccc(N2CCCC(C(=O)O)C2)nc1 (centres unmarked) [CA254] | -2.11% |
| O=C(O)c1ccc(-c2cnco2)cc1 [CA255] | 0.58% |
| Cn1nc(C(=O)O)cc1-c1cccnc1 [CA256] | -0.67% |
| Cc1cc(COc2ccc(C(=O)O)cc2Br)no1 [CA257] | 1.45% |
| O=C(O)C1CN(S(=O)(=O)C2CC2)C1 [CA258] | 20.5% |
| COc1ccc(C(=O)O)cc1S(=O)(=O)NCCc1ccccn1 [CA259] | 13.5% |
| Cc1onc(-c2ccccn2)c1C(=O)O [CA260] | 12.1% |
| O=C(O)C(=O)N1CCN(c2ccccc2)CC1 [CA261] | 10.4% |
| O=C(O)C(F)(F)n1cc(-c2ccccc2)nn1 [CA262] | 8.22% |
| O=C(O)C1Cc2ccccc21 (centres unmarked) [CA263] | 9.79% |
| O=C(O)c1ccnc(N2CCOCC2)n1 [CA264] | 8.23% |
| O=C(O)C1COCCN1C(=O)OCc1ccccc1 (centres unmarked) [CA265] | 7.65% |
| O=C(O)c1cncc(N2CCCC2)n1 [CA266] | 8.54% |
| CN(Cc1ccccc1)S(=O)(=O)c1ccc(C(=O)O)cc1 [CA267] | 9.75% |
| Cn1nc(-c2cccnc2)cc1C(=O)O [CA268] | 8.72% |
| O=C(O)c1cnoc1-c1ccccc1C(F)(F)F [CA269] | 6.72% |

Same assay, conditions: mUSP18 %inhibition; carboxylic acid (CA) with coupling reagents DIC/HOBT; read-out: %inh CA + DIC/HOBT

| Compound | inhibition at 1.25 µM |
| --- | --- |
| O=C(O)c1cccc(-c2cnco2)c1 [CA208] | 11.1% |
| O=C1CCC(=O)N(c2ccc(C(=O)O)cc2)N1 [CA209] | 14.4% |
| O=C(O)c1coc(-c2cccnc2)n1 [CA210] | 4.16% |
| O=C(O)c1ccc(=O)n(Cc2ccccc2)n1 [CA211] | 0.49% |
| Cc1nc(-c2cccnc2)sc1C(=O)O [CA212] | 0.87% |
| CN1CCN(C(=O)c2ccccc2C(=O)O)CC1 [CA213] | -1.04% |
| Cc1cc(C(=O)O)c(C)n1-c1ccon1 [CA214] | 33.1% |
| O=C(O)c1cccc(-c2ncn[nH]2)c1 [CA215] | 1.55% |
| O=C(O)c1ccnn1C1CCOCC1 [CA216] | 2.43% |
| COc1ccc(C(=O)O)cc1S(=O)(=O)N1CCCCCC1 [CA217] | 0.58% |
| Cn1nc(C(=O)N2CCOCC2)cc1C(=O)O [CA218] | 0.97% |
| Cc1nn(C2CCOCC2)c(C)c1C(=O)O [CA219] | -0.2% |
| O=C(O)C1CCOC2(CCC2)C1 (centres unmarked) [CA220] | -0.86% |
| O=C(O)c1cnn(CCN2CCCC2)c1 [CA221] | 3.5% |
| O=C(O)C1(c2cccs2)CC1 [CA222] | 3.8% |
| O=C(O)c1cc(-c2ccco2)on1 [CA223] | 4.1% |
| O=C(O)c1ccc(Cn2cc(Br)cn2)o1 [CA224] | 5.82% |
| O=C(O)C(c1ccccc1)n1cnnn1 (centres unmarked) [CA225] | -0.48% |
| Cc1csc(N2CCCC(C(=O)O)C2)n1 (centres unmarked) [CA226] | 3.37% |
| CC(C(=O)O)n1nc(C(F)(F)F)cc1C1CC1 (centres unmarked) [CA227] | 2.83% |
| O=C(O)C1CCCN1C(=O)Cc1ccccc1 (centres unmarked) [CA228] | 4.1% |

| Compound | inhibition at 1.25 µM |
| --- | --- |
| O=C(O)CC1(n2cccc2)CCCCC1 [CA229] | 5.66% |
| O=C(O)c1cc(S(=O)(=O)NCCCN2CCCC2=O)ccc1Cl [CA230] | 3.56% |
| O=C(O)c1ccc(OCn2cc(Cl)cn2)cc1 [CA231] | 6.49% |
| O=C(O)Cc1cnn(-c2ccccc2)c1 [CA232] | 8.28% |
| CC(C)c1nc(Cn2cc(C(=O)O)ccc2=O)cs1 [CA233] | 15% |
| CCS(=O)(=O)N1CCC(C(=O)O)(c2ccccc2)CC1 [CA234] | 0.71% |
| O=C(O)c1ccc(CNS(=O)(=O)c2ccc(F)c(F)c2F)cc1 [CA235] | 1.22% |
| O=C(O)c1csc(C2CC2)n1 [CA236] | 1.88% |
| CC1CCCC(N2CC(C(=O)O)CC2=O)C1C (centres unmarked) [CA237] | -3.69% |
| O=C(O)c1csc(-c2cnc[nH]2)n1 [CA238] | -0.05% |
| Cc1cc(C(=O)O)c(C)n1C1CC1 [CA239] | 5.98% |
| O=C(O)c1cnn(-c2cccc(Br)c2)c1 [CA240] | 6.83% |
| CN(CC(=O)N1CCCC(C(=O)O)C1)c1ccc(Cl)cn1 (centres unmarked) [CA241] | 1.85% |
| O=C(O)C1CCN(C(=O)c2ccccn2)CC1 [CA242] | 2.43% |
| O=C(O)c1ccc(Cn2cncn2)cc1 [CA243] | 2.23% |
| O=C(O)c1cc(Cl)nc(N2CCCC2)c1 [CA244] | 3.68% |
| Cc1nc(-c2c[nH]c(C(=O)O)c2)cs1 [CA245] | 52.7% |
| O=C(O)Cc1ccn(-c2ccccc2)n1 [CA246] | 5.35% |
| O=C(O)C1CC(=O)N(C2CCCCCC2)C1 (centres unmarked) [CA247] | 4.63% |
| O=C(O)c1cc(C2CCCCC2)[nH]n1 [CA248] | 7.2% |
| Cc1ccc(-c2cc(C(=O)O)n[nH]2)s1 [CA249] | 6.81% |

| Compound | inhibition at 1.25 µM |
| --- | --- |
| O=C(O)c1ccc(-c2ccccc2)o1 [CA250] | 5.27% |
| O=C(O)c1cccnc1N1CCCCC1 [CA251] | 6% |
| O=C(O)C1=NNC(=O)C1c1ccccc1 (centres unmarked) [CA252] | 10.3% |
| Cc1nn(-c2ccc(C(F)(F)F)cn2)c(C)c1CC(=O)O [CA253] | 9.05% |
| Cc1ccc(N2CCCC(C(=O)O)C2)nc1 (centres unmarked) [CA254] | 7.64% |
| O=C(O)c1ccc(-c2cnco2)cc1 [CA255] | 7.03% |
| Cn1nc(C(=O)O)cc1-c1cccnc1 [CA256] | 11.7% |
| Cc1cc(COc2ccc(C(=O)O)cc2Br)no1 [CA257] | 15.8% |
| O=C(O)C1CN(S(=O)(=O)C2CC2)C1 [CA258] | 2.25% |
| COc1ccc(C(=O)O)cc1S(=O)(=O)NCCc1ccccn1 [CA259] | 2.38% |
| Cc1onc(-c2ccccn2)c1C(=O)O [CA260] | 1.48% |
| O=C(O)C(=O)N1CCN(c2ccccc2)CC1 [CA261] | 2.36% |
| O=C(O)C(F)(F)n1cc(-c2ccccc2)nn1 [CA262] | 3.17% |
| O=C(O)C1Cc2ccccc21 (centres unmarked) [CA263] | 2.89% |
| O=C(O)c1ccnc(N2CCOCC2)n1 [CA264] | 4.28% |
| O=C(O)C1COCCN1C(=O)OCc1ccccc1 (centres unmarked) [CA265] | 3.99% |
| O=C(O)c1cncc(N2CCCC2)n1 [CA266] | 4.99% |
| CN(Cc1ccccc1)S(=O)(=O)c1ccc(C(=O)O)cc1 [CA267] | 5.3% |
| Cn1nc(-c2cccnc2)cc1C(=O)O [CA268] | 3.94% |
| O=C(O)c1cnoc1-c1ccccc1C(F)(F)F [CA269] | 5.54% |

Same assay, conditions: screened with and without DIC/HOBt

| Compound | inhibition of mUSP18 by individual CA's and coupling reagents |
| --- | --- |
| Cc1nc(-c2c[nH]c(C(=O)O)c2)cs1 [CA245] | could inhibit mUSP18 |
